Laboratory results published in patent publication US12030835B2, “Substituted amide compounds useful as farnesoid X receptor modulators” (BRISTOL-MYERS SQUIBB COMPANY, priority 2019, dated 2024).

Biological target: T1, human FXR (Homo sapiens, UniProt Q96RI1)
T1 construct: expressed in transfected cells
T1 sequence (Q96RI1 262-486 limits assumed): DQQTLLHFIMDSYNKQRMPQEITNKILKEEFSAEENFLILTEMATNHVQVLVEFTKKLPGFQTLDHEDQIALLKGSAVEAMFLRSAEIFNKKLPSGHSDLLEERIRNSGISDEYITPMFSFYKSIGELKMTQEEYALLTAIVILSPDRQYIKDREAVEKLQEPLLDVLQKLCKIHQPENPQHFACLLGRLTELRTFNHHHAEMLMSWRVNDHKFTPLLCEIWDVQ
Assay: transient human FXR/Gal4-luciferase reporter assay
Assay type: cell-based
Settings: Gal4-hFXR (ligand binding domain) fusion transiently transfected in HEK293 Gal4-luciferase reporter cells; overnight incubation; response as percentage of 8 μM GW-4064 control
Method: A Gal4-hFXR fusion construct reporter system was used as the primary assay to characterize compound activity. A construct including 5 copies of the Gal4 promoter response element upstream of a firefly luciferase reporter cDNA was stably expressed in HEK293 cells. This reporter cell line was maintained in Dulbecco's Modified Eagle's medium (DMEM; Gibco) supplemented with 1% penicillin-streptomycin (P/S) solution, 500 μg/ml Zeocin and 10% charcoal/dextran-treated fetal bovine serum (cs-FBS) at 37° C. in a humidified 5% CO2 atmosphere. Another plasmid was constructed in which the human cytomegalovirus promoter in the pcDNA3.1 vector directs the expression of the cDNA encoding a fusion protein comprised of the DNA binding domain from the Gal4 transcription factor fused to the ligand binding domain from human FXR.
The day prior to transfection, the reporter cells in culture are detached from the plate with trypsin and plated into a T75 flask at a sufficient density to achieve approximately 90% confluence the next morning. The transfection reagents are prepared by separately diluting 25 μg of the pcDNA3.1-Gal4-FXR plasmid into 1.87 mL of Opti-MEM (Thermo-Fisher), and 40 μL of Lipofectamine 2000 (Thermo-Fisher) into 1.87 mL of Opti-MEM, and then adding the diluted DNA solution into the diluted Lipofectamine 2000 solution and incubating at room temperature for 15-20 minutes. The mixture is further diluted with 10 ml of a solution comprised of DMEM, 10% cs-FBS, and 1% P/S immediately prior to transferring to the cells. The maintenance culture media is aspirated from the cells and the final transfection mixture is added before the cells are incubated overnight at 37° C. in a humidified 5% CO2 atmosphere. This protocol can be scaled up, and the transiently transfected cells can be cryopreserved in an assay-ready format.
For compound testing, 100 nL of the compounds (serial dilutions in DMSO) are dispensed with an Echo acoustic dispenser (Labcyte) into the wells of a Corning/Costar clear bottom 384-well white plate. The transfected cells are harvested, counted, and diluted such that 10-25,000 cells in 25 μL are plated into each well of the 384-well compound assay plate. The compound-treated cells are incubated overnight at 37° C. in a humidified 5% CO2 atmosphere. The next morning 25 μL of Steady-Glo (Promega) are added to each well of the plate, the mixture is incubated for 15 min. with shaking, and luminescence is measured on an Envision (Perkin Elmer) plate reader.

| SMILES | EC50 [nM] |
| --- | --- |
| COC(=O)/C=C(\C)c1cccc(N(CC23CCC(c4ccc(N5CCOCC5)cc4)(CC2)CC3)C(=O)C2CCCCC2)c1 [Example 14, Methyl (E)-3-(3-(N-((4-(4-morpholinophenyl)bicyclo[2.2.2]octan-1-yl)methyl)cyclohexanecarboxamido)phenyl)but-2-enoate] | 1150 |
| COC(=O)C1=Cc2cccc(N(CC34CCC(c5ccc(N(C)C)cc5)(CC3)CC4)C(=O)C3CCCCC3)c2CC1 [Example 12, methyl 5-(N-((4-(4-(dimethylamino)phenyl)bicyclo[2.2.2]octan-1-yl)methyl)cyclohexanecarboxamido)-3,4-dihydronaphthalene-2-carboxylate] | 2580 |
| CCN(CC)c1ccc(C23CCC(CN(C(=O)C4CCCCC4)c4cccc5c4CCC(C(=O)OC)=C5)(CC2)CC3)cc1 [Example 13, methyl 5-(N-((4-(4-(diethylamino)phenyl)bicyclo[2.2.2]octan-1-yl)methyl)cyclohexanecarboxamido)-3,4-dihydronaphthalene-2-carboxylate] | 912 |
| Cc1noc(C23CCC(CN(C(=O)C4CCCCC4)c4cccc(/C=C/C(=O)N(C)C)c4)(CC2)CC3)n1 [Example 27, (E)-N-(3-(3-(dimethylamino)-3-oxoprop-1-en-1-yl)phenyl)-N-((4-(3-methyl-1,2,4-oxadiazol-5-yl)bicyclo[2.2.2]octan-1-yl)methyl)cyclohexanecarboxamide] | 4460 |
| COC(=O)/C=C/c1cccc(N(CC23CCC(c4ccc(N(C)C)cc4)(CC2)CC3)C(=O)C2CCCCC2)c1 [Example 1, Methyl (E)-3-(3-(N-((4-(4-(dimethylamino)phenyl)bicyclo[2.2.2]octan-1-yl)methyl)cyclohexanecarboxamido)phenyl)acrylate] | 78 |
| COC(=O)/C=C/c1cccc(N(CC23CCC(c4nc(C)no4)(CC2)CC3)C(=O)C(C)C)c1 [Example 22, methyl (E)-3-(3-(N-((4-(3-methyl-1,2,4-oxadiazol-5-yl)bicyclo[2.2.2]octan-1-yl)methyl)isobutyramido)phenyl)acrylate] | 849 |
| COC(=O)/C=C(\C)c1cccc(N(CC23CCC(c4nc(C)no4)(CC2)CC3)C(=O)C2CCCCC2)c1 [Example 19, Methyl (E)-3-(3-(N-((4-(3-methyl-1,2,4-oxadiazol-5-yl)bicyclo[2.2.2]octan-1-yl)methyl)cyclohexanecarboxamido)phenyl)but-2-enoate] | 551 |
| COC(=O)/C=C/c1cccc(N(CC23CCC(c4nc(C)no4)(CC2)CC3)C(=O)C2CC(F)(F)C2)c1 [Example 26, methyl (E)-3-(3-(3,3-difluoro-N-((4-(3-methyl-1,2,4-oxadiazol-5-yl)bicyclo[2.2.2]octan-1-yl)methyl)cyclobutane-1-carboxamido)phenyl)acrylate] | 302 |
| COC(=O)/C=C/c1cccc(N(CC23CCC(c4ccc5c(cnn5C)c4)(CC2)OC3)C(=O)C2CCOCC2)c1 [Example 8, (E)-Methyl 3-(3-(N-((1-(1-methyl-1H-indazol-5-yl)-2-oxabicyclo[2.2.2]octan-4-yl)methyl)tetrahydro-2H-pyran-4-carboxamido)phenyl)acrylate] | 1600 |
| COC(=O)/C=C/c1cccc(N(CC23CCC(c4ccc5c(cnn5C)c4)(CC2)OC3)C(=O)C2CCN(C)CC2)c1 [Example 9, (E)-Methyl 3-(3-(1-methyl-N-((1-(1-methyl-1H-indazol-5-yl)-2-oxabicyclo[2.2.2]octan-4-yl)methyl)piperidine-4-carboxamido)phenyl)acrylate] | 4720 |
| COC(=O)/C=C/c1cccc(N(CC23CCC(c4ccccc4)(CC2)CC3)C(=O)C2CCCCC2)c1 [Example 7, Methyl (E)-3-(3-(N-((4-phenylbicyclo[2.2.2]octan-1-yl)methyl)cyclohexanecarboxamido)phenyl)acrylate] | 395 |
| COc1ccc(C23CCC(CN(C(=O)C4CCCCC4)c4cccc5c4CCC(C(=O)O)=C5)(CC2)CC3)cc1 [Example 17, 5-(N-((4-(4-methoxyphenyl)bicyclo[2.2.2]octan-1-yl)methyl)cyclohexanecarboxamido)-3,4-dihydronaphthalene-2-carboxylic Acid] | 2240 |
| COC(=O)/C=C/c1cccc(N(CC23CCC(c4ccc(OC)cc4)(CC2)OC3)C(=O)C2CCCCC2)c1 [Example 10, Methyl (E)-3-(3-(N-((1-(4-methoxyphenyl)-2-oxabicyclo[2.2.2]octan-4-yl)methyl)cyclohexanecarboxamido)phenyl)acrylate] | 319 |
| COC(=O)/C=C/c1cccc(N(CC23CCC(c4ccc(C5CC5)cc4)(CC2)CC3)C(=O)C2CCCCC2)c1 [Example 29, Methyl (E)-3-(3-(N-((4-(4-cyclopropylphenyl)bicyclo[2.2.2]octan-1-yl)methyl)cyclohexanecarboxamido)phenyl)acrylate] | 161 |
| COC(=O)/C=C/c1cccc(N(C(=O)C2CCCCC2)C(C)C23CCC(c4nc(C)no4)(CC2)CC3)c1 (single isomer, unassigned) [Example 46, Methyl (E)-3-(3-(N-(1-(4-(3-methyl-1,2,4-oxadiazol-5-yl)bicyclo[2.2.2]octan-1-yl)ethyl)cyclohexanecarboxamido)phenyl)acrylate] | 302 |
| COC(=O)/C=C/c1cccc(N(CC23CCC(c4nc5ccccc5s4)(CC2)CC3)C(=O)C2CC2)c1 [Example 33, Methyl (E)-3-(3-(N-((4-(benzo[d]thiazol-2-yl)bicyclo[2.2.2]octan-1-yl)methyl)cyclopropanecarboxamido)phenyl)acrylate] | 414 |
| COC(=O)/C=C/c1cccc(N(CC23CCC(c4nc(C)no4)(CC2)CC3)C(=O)C2CCOCC2)c1 [Example 23, Methyl (E)-3-(3-(N-((4-(3-methyl-1,2,4-oxadiazol-5-yl)bicyclo[2.2.2]octan-1-yl)methyl)tetrahydro-2H-pyran-4-carboxamido)phenyl)acrylate] | 920 |
| COC(=O)/C=C/c1cccc(N(CC23CCC(c4nc(C)no4)(CC2)CC3)C(=O)C23CC(F)(C2)C3)c1 [Example 25, methyl (E)-3-(3-(3-fluoro-N-((4-(3-methyl-1,2,4-oxadiazol-5-yl)bicyclo[2.2.2]octan-1-yl)methyl)bicyclo[1.1.1]pentane-1-carboxamido)phenyl)acrylate] | 123 |
| COC(=O)C1=Cc2cccc(N(CC34CCC(c5ccc(OC)cc5)(CC3)CC4)C(=O)C3CCCCC3)c2CC1 [Example 18, Methyl 5-(N-((4-(4-methoxyphenyl)bicyclo[2.2.2]octan-1-yl)methyl)cyclohexanecarboxamido)-3,4-dihydronaphthalene-2-carboxylate] | 1810 |
| COC(=O)/C=C/c1cccc(N(CC23CCC(c4ccc(N5CCOCC5)cc4)(CC2)CC3)C(=O)C2CCCCC2)c1 [Example 3, (E)-methyl 3-(3-(N-((4-(4-morpholinophenyl)bicyclo[2.2.2]octan-1-yl)methyl)cyclohexanecarboxamido)phenyl)acrylate] | 165 |
| COC(=O)/C=C/c1cccc(N(CC23CCC(c4nc(C)no4)(CC2)CC3)C(=O)C2CCCCC2)c1 [Example 20, Methyl (E)-3-(3-(N-((4-(3-methyl-1,2,4-oxadiazol-5-yl)bicyclo[2.2.2]octan-1-yl)methyl)cyclohexanecarboxamido)phenyl)acrylate] | 56 |
| CC(C)(O)C#Cc1cccc(N(CC23CCC(c4noc(C(C)(F)F)n4)(CC2)CC3)C(=O)C23CC(F)(C2)C3)c1 [Example 49, N-((4-(5-(1,1-difluoroethyl)-1,2,4-oxadiazol-3-yl)bicyclo[2.2.2]octan-1-yl)methyl)-3-fluoro-N-(3-(3-hydroxy-3-methylbut-1-yn-1-yl)phenyl)bicyclo[1.1.1]pentane-1-carboxamide] | 39 |
| COc1ccc(C23CCC(CN(C(=O)C4CCCCC4)c4cccc(/C=C/c5nc(C)no5)c4)(CC2)CC3)cc1 [Example 35, (E)-N-((4-(4-methoxyphenyl)bicyclo[2.2.2]octan-1-yl)methyl)-N-(3-(2-(3-methyl-1,2,4-oxadiazol-5-yl)vinyl)phenyl)cyclohexanecarboxamide] | 446 |
